Experimental data from the NIST ThermoML archive (doi:10.1016/j.tca.2013.11.010).

What was measured:
[1] = for surface tension liquid-gas: Drop volume; for viscosity / speed of sound / mass density: 101.33 kPa; for viscosity / speed of sound / mass density / vapor or sublimation pressure: Liquid; for viscosity: Capillary tube (Ostwald / Ubbelohde) method; for speed of sound: Sing-around technique in a fixed-path interferometer; for mass density: Vibrating tube method; for vapor or sublimation pressure: Ebulliometric method (Recirculating still)
[2] = refractive index (Na D-line) (dimensionless); conditions: 101.33 kPa, Liquid, Standard Abbe refractometry
[3] = relative permittivity at various frequencies (dimensionless); conditions: 101.3 kPa, Liquid, Frequency=2 MHz, Parallel plate capacitor

CCOC(=O)C(C)O (racemic) [DL-ethyl lactate]
Conditions | mass density, [1] [kg/m3] | refractive index, [2] | relative permittivity, [3] | speed of sound, [1] [m/s] | surface tension liquid-gas, [1] [mN/m] | vapor or sublimation pressure, [1] [kPa] | viscosity, [1] [mPa·s]
278.15 K | 1050.05 | – | 17.791 | 1354.5 | 31.47 | – | 4.479
280.65 K | 1047.37 | – | 17.538 | 1345.2 | 31.21 | – | 4.091
283.15 K | 1044.68 | 1.41751 | 17.219 | 1335.7 | 30.94 | – | 3.75
285.65 K | 1041.96 | 1.41644 | 16.961 | 1326.2 | 30.79 | – | 3.451
288.15 K | 1039.26 | 1.41528 | 16.736 | 1316.8 | 30.43 | – | 3.184
290.65 K | 1036.54 | 1.41414 | 16.496 | 1307.5 | 30.18 | – | 2.947
293.15 K | 1033.82 | 1.41301 | 16.166 | 1298.3 | 29.95 | – | 2.735
295.65 K | 1031.09 | 1.41188 | 15.961 | 1289 | 29.67 | – | 2.546
298.15 K | 1028.37 | 1.41074 | 15.711 | 1279.7 | 29.49 | – | 2.375
300.65 K | 1025.63 | 1.40959 | 15.448 | 1270.5 | 29.23 | – | 2.221
303.15 K | 1022.89 | 1.40843 | 15.18 | 1261.2 | 28.88 | 0.436 | 2.081
305.65 K | 1020.15 | 1.40729 | 14.917 | 1251.9 | 28.64 | – | 1.955
308.15 K | 1017.4 | 1.40615 | 14.639 | 1242.6 | 28.42 | 0.603 | 1.838
310.65 K | 1014.64 | 1.40501 | 14.373 | 1233.3 | 28.12 | – | 1.733
313.15 K | 1011.88 | 1.40381 | 14.107 | 1224 | 27.84 | 0.829 | 1.636
315.65 K | 1009.12 | 1.40267 | 13.843 | 1214.7 | 27.46 | – | 1.547
318.15 K | 1006.34 | 1.40152 | 13.573 | 1205.4 | 27.19 | 1.142 | 1.466
320.65 K | 1003.57 | 1.40036 | 13.298 | 1196.1 | 26.92 | – | 1.391
323.15 K | 1000.78 | 1.39918 | 13.045 | 1186.8 | 26.65 | 1.536 | 1.321
325.65 K | 997.99 | 1.39798 | 12.786 | 1177.6 | 26.29 | – | 1.255
328.15 K | 995.193 | 1.39684 | 12.538 | 1168.4 | 26.08 | 2.015 | 1.196
330.65 K | 992.389 | 1.3956 | 12.286 | 1159.1 | 25.92 | – | 1.14
333.15 K | 989.579 | 1.39448 | 12.044 | 1149.9 | 25.48 | 2.717 | 1.087
335.65 K | 986.763 | 1.3933 | 11.787 | 1140.7 | 25.32 | – | 1.037
338.15 K | 983.942 | 1.39215 | 11.495 | 1131.6 | 25.05 | 3.523 | 0.9907
343.15 K | – | – | – | – | – | 4.591 | –
348.15 K | – | – | – | – | – | 5.851 | –
353.15 K | – | – | – | – | – | 7.323 | –
358.15 K | – | – | – | – | – | 9.29 | –
363.15 K | – | – | – | – | – | 11.49 | –
368.15 K | – | – | – | – | – | 14.19 | –
373.15 K | – | – | – | – | – | 17.37 | –
378.15 K | – | – | – | – | – | 21.11 | –
383.15 K | – | – | – | – | – | 25.51 | –
388.15 K | – | – | – | – | – | 30.62 | –
393.15 K | – | – | – | – | – | 36.24 | –
398.15 K | – | – | – | – | – | 42.71 | –
403.15 K | – | – | – | – | – | 50.4 | –
408.15 K | – | – | – | – | – | 59.11 | –
413.15 K | – | – | – | – | – | 69.13 | –
418.15 K | – | – | – | – | – | 80.2 | –
423.15 K | – | – | – | – | – | 92.51 | –
